Data from ChEMBL document CHEMBL5030554, “Design, synthesis and biological evaluation of novel (E)-2-benzylidene-N-(3-cyano-4,5,6,7-tetrahydrobenzo[b]thiophen-2-yl)hydrazine-1-carboxamide derivatives as α-glucosidase inhibitors” (Bioorg Med Chem Lett, 2021).
Active and inactive are the calls of the source. The calls are words filed in the database; no cut-off is given here.

Experiments:
Saccharomyces cerevisiae = assay: Inhibition of Saccharomyces cerevisiae alpha-glucosidase assessed as decrease in release of p-nitrophenol at 100 uM using pNPG as substrate preincubated for 15 min followed by substrate addition and measured after 5 mins by spectrophotometric method relative to control; details: time 20.0 min
[1] = Inhibition of Saccharomyces cerevisiae alpha-glucosidase assessed as decrease in release of p-nitrophenol using pNPG as substrate preincubated for 15 min followed by substrate addition and measured after 5 mins by spectrophotometric method
Homo sapiens [2] = species: Homo sapiens; assay: Binding affinity to alpha-glucosidase (unknown origin) assessed as quenching of intrinsic tryptophan fluorescence of the enzyme by FRET assay
Homo sapiens [3] = species: Homo sapiens; assay: Non-competitive inhibition of alpha-glucosidase (unknown origin) assessed as decrease in Vmax with constant Km using varying levels of PNP glycoside as substrate preincubated for 30 mins followed by substrate addition and measured for 60 seconds by Lineweaver-Burk plot analysis
[4] = Cytotoxicity against human L02 cells assessed as cell viability at 100 uM by MTT assay relative to control; assay type: cell-based; details: read-out: Activity
[5] = Cytotoxicity against human HepG2 cells assessed as cell viability at 100 uM by MTT assay relative to control; assay type: cell-based; details: read-out: Activity
Rattus norvegicus [6] = species: Rattus norvegicus; assay: Hypoglycemic activity in sucrose-treated Sprague-Dawley rat assessed as reduction in blood glucose level measured after 30 mins by oral sucrose tolerance test; assay type: functional, organism-based
Rattus norvegicus [7] = species: Rattus norvegicus; assay: Hypoglycemic activity in sucrose-treated Sprague-Dawley rat assessed as reduction in blood glucose AUC measured after 2 hrs by oral sucrose tolerance test; assay type: functional, organism-based

Row | Compound | inhibition (Saccharomyces cerevisiae) [%] | IC50 [1] [µM] | other results
1 | N#Cc1c(NC(=O)N/N=C/c2ccccc2O)sc2c1CCCC2 | 44.9 |  | 
2 | N#Cc1c(NC(=O)N/N=C/c2ccc([N+](=O)[O-])cc2)sc2c1CCCC2 | 57.6 | 67.4 | 
3 | N#Cc1c(NC(=O)N/N=C/c2ccc(O)c(O)c2)sc2c1CCCC2 | 86.3 | 9.26 | Activity (Homo sapiens [2]): Dose-Dependent Effect; inhibition (Homo sapiens [3]): Active; viability at 100 µM [4]: 96%; viability at 100 µM [5]: 92.7%; Activity (Rattus norvegicus [6]): Active; Activity (Rattus norvegicus [7]): Active
4 | N#Cc1c(NC(=O)N/N=C/c2ccc(O)c(O)c2O)sc2c1CCCC2 | 85.9 | 17.7 | 
5 | N#Cc1c(NC(=O)N/N=C/c2cccc(OCc3ccccc3)c2)sc2c1CCCC2 | 40.5 |  | 
6 | N#Cc1c(NC(=O)N/N=C/c2cccc(O)c2O)sc2c1CCCC2 | 68.2 | 29.5 | 
7 | N#Cc1c(NC(=O)N/N=C/c2ccc(O)cc2O)sc2c1CCCC2 | 63.1 | 33.8 | 
8 | N#Cc1c(NC(=O)N/N=C/c2cc(O)cc(O)c2)sc2c1CCCC2 | 89.5 | 11.4 | Activity (Homo sapiens [2]): Dose-Dependent Effect; inhibition (Homo sapiens [3]): Active; viability at 100 µM [4]: 96.6%; viability at 100 µM [5]: 93.8%; Activity (Rattus norvegicus [6]): Active; Activity (Rattus norvegicus [7]): Active
9 | N#Cc1c(NC(=O)N/N=C/c2ccc(O)cc2)sc2c1CCCC2 | 81.7 | 20.7 | 
10 | Cc1cccc(/C=N/NC(=O)Nc2sc3c(c2C#N)CCCC3)c1C | 59.5 | 49.2 | 
11 | N#Cc1c(NC(=O)N/N=C/c2ccc(Oc3ccccc3)cc2)sc2c1CCCC2 | 72.5 | 21.8 | 
12 | N#Cc1c(NC(=O)N/N=C/c2ccc(OCc3ccccc3)cc2)sc2c1CCCC2 | 66.6 | 26.5 | 
13 | Cc1ccc(/C=N/NC(=O)Nc2sc3c(c2C#N)CCCC3)cc1 | 85.1 | 29.8 | 
14 | CCN(CC)c1ccc(/C=N/NC(=O)Nc2sc3c(c2C#N)CCCC3)cc1 | 77.3 | 32.1 | 
15 | CC(C)c1ccc(/C=N/NC(=O)Nc2sc3c(c2C#N)CCCC3)cc1 | 64.2 | 48.6 | 
16 | N#Cc1c(NC(=O)N/N=C/c2ccc(N(c3ccccc3)c3ccccc3)cc2)sc2c1CCCC2 | 89.7 | 13.5 | 
17 | Cc1cccc(/C=N/NC(=O)Nc2sc3c(c2C#N)CCCC3)c1O | 29.5 |  | 
18 | C[C@H]1O[C@H](O[C@H]2[C@H](O)[C@@H](O)[C@@H](O[C@H]3[C@H](O)[C@@H](O)C(O)O[C@@H]3CO)O[C@@H]2CO)[C@H](O)[C@@H](O)[C@@H]1N[C@H]1C=C(CO)[C@@H](O)[C@H](O)[C@H]1O (stereo partly drawn) [ACARBOSE] |  | 440 | Activity (Rattus norvegicus [6]): Active
19 | COc1cccc2c1C(=O)c1c(O)c3c(c(O)c1C2=O)C[C@@](O)(C(=O)CO)C[C@@H]3O[C@H]1C[C@H](N)[C@H](O)[C@H](C)O1 [DOXORUBICIN] |  |  | viability at 100 µM [4]: 4%; viability at 100 µM [5]: 4%

Row | Compound | inhibition (Saccharomyces cerevisiae) [%] | IC50 [1] [µM] | other results
20 | N#Cc1c(NC(=O)N/N=C/c2ccc(N3CCCC3)cc2)sc2c1CCCC2 | 70.7 | 68.4 | 
21 | N#Cc1c(NC(=O)NCc2ccccc2)sc2c1CCCC2 |  | 63.1 | 
22 | Cc1ccc(/C=N/NC(=O)Nc2sc3c(c2C#N)CCCC3)c(O)c1 | 34.9 |  | 
23 | N#Cc1c(NC(=O)N/N=C/c2ccccc2OCc2ccccc2)sc2c1CCCC2 | 48 |  | 
24 | COc1cc(/C=N/NC(=O)Nc2sc3c(c2C#N)CCCC3)cc(OC)c1 | 36.4 |  | 
25 | COc1ccc(/C=N/NC(=O)Nc2sc3c(c2C#N)CCCC3)cc1O | 27.8 |  | 
26 | COc1ccc(/C=N/NC(=O)Nc2sc3c(c2C#N)CCCC3)cc1 | 18.8 |  | 
27 | COC(=O)c1ccc(/C=N/NC(=O)Nc2sc3c(c2C#N)CCCC3)cc1 | 7.69 |  | 
28 | N#Cc1c(NC(=O)N/N=C/c2cccc(O)c2)sc2c1CCCC2 | 48.4 |  | 
29 | Cc1ccc(/C=N/NC(=O)Nc2sc3c(c2C#N)CCCC3)cc1C | 74.8 | 38.9 | 
30 | Cc1cc(C)c(/C=N/NC(=O)Nc2sc3c(c2C#N)CCCC3)c(C)c1 | 52.3 | 49.6 | 
31 | Cc1cc(/C=N/NC(=O)Nc2sc3c(c2C#N)CCCC3)cc(C)c1O | 35.4 |  | 
32 | CCc1ccc(/C=N/NC(=O)Nc2sc3c(c2C#N)CCCC3)cc1 | 89.5 | 25.4 | 
33 | COc1cc(/C=N/NC(=O)Nc2sc3c(c2C#N)CCCC3)cc(OC)c1O | 0.7 |  | 
34 | N#Cc1c(NC(=O)N/N=C/c2ccc3c(c2)OC=CO3)sc2c1CCCC2 | 35.7 |  | 
35 | N#Cc1c(NC(=O)N/N=C/c2ccccc2)sc2c1CCCC2 | 31.4 |  | 
36 | CN(C)c1ccc(/C=N/NC(=O)Nc2sc3c(c2C#N)CCCC3)cc1 | 67.2 | 46.4 | 
37 | CCN(CC)c1ccc(/C=N/NC(=O)Nc2sc3c(c2C#N)CCCC3)c(O)c1 | 64.2 | 32.5 | 
38 | Cc1cc(/C=N/NC(=O)Nc2sc3c(c2C#N)CCCC3)ccc1O | 72.2 | 54.4 | 
